Experimental data as given in PMC11867108, “Design and application of a fluorescent probe for imaging of endogenous Bruton's tyrosine kinase with preserved enzymatic activity” (RSC Chemical Biology, 2025).
pIC50: −log10 of the molar value.

Key:
[1] = molecular target: T1, Bruton's tyrosine kinase (BTK) (Homo sapiens, UniProt Q06187); experiment: in-gel fluorescence under denaturing conditions (covalent labelling); ADP-Glo IC50; assay type: biochemical
T1 construct: full-length recombinant BTK

[2] = molecular target: T1, Bruton's tyrosine kinase (BTK); experiment: LC-MS/MS of tryptic peptide […]-487 and in-gel fluorescence; ADP-Glo IC50; immunoprecipitation from Ramos cells; assay type: biochemical

T1 sequence (Q06187 2-659): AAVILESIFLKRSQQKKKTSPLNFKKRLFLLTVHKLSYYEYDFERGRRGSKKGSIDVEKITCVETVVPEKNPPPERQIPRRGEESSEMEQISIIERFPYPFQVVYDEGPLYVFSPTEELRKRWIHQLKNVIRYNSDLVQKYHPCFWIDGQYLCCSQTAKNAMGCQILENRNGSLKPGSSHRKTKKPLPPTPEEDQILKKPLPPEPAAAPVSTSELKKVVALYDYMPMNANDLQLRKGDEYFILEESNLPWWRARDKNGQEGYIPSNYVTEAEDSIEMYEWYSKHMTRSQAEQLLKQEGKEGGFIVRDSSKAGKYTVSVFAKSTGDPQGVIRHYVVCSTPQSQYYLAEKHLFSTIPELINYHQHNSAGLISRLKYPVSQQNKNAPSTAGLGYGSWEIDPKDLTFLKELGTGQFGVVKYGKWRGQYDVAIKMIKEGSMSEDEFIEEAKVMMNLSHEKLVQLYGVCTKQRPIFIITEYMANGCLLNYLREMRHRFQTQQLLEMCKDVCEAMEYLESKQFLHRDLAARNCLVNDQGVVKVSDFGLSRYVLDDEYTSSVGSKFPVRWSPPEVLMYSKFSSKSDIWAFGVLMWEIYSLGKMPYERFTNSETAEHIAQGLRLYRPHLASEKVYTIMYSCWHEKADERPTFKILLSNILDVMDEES

C=C(CN1CCC(CNc2ncnc(N)c2-c2ccc(Oc3ccccc3)cc2)CC1)C(=O)NCCNC(=O)CCC1=[N+]2C(=Cc3c(C)cc(C)n3[B-]2(F)F)C=C1 [Evo-1]
pIC50 [1]: 5.12

C=C(CN1CCC(CNc2ncnc(N)c2-c2ccc(Oc3ccccc3)cc2)CC1)C(=O)N1CCC(NC(=O)CCC2=[N+]3C(=Cc4c(C)cc(C)n4[B-]3(F)F)C=C2)CC1 [Evo-2]
pIC50 [2]: < 5.00
